In patent US20240052005A1, “IMPROVED CELL-PENETRATING PEPTIDES AND FUSION PROTEINS” (ANASTASIS BIOTEC LIMITED, priority 2020, published 2024):
Entries after “also recorded” stand apart in the source; their conditions may differ.

B1: MAML: unmodified recombinant MAML protein bearing a HIS-Tag (protein)
chain: LPRHSAVMERLRRRIELCRRHHSTCEARYEAVSPERLELERQHTFALHQRCIQAKAKRAGKH
modifications: also: His-tag, place not given here

What was measured:
Human cell-line SKOV3 = test: Cell transduction visualised with FITC-conjugated anti-HIS antibody; type: cell-based; settings: 0.01 mg/mL, 1 hour at 37° C.
Description: Human cell-line SKOV3 was cultured in DMEM media with 10% serum at 37° C., 5% CO2 until 40% confluency in a 96-well culture dish. The media was removed and replaced with 0.1 mL tissue culture-grade PBS and unmodified ANTP, unmodified MAML and ANTP-PEG-2-MAML were added to a final concentration of 0.01 mg/mL. Cell transduction was allowed to proceed for 1 hour at 37° C. Next, the PBS was removed and replaced with DMEM/serum and the cells were grown overnight as above. The transduced cells were then fixed using 1% glutaraldehyde at room temperature for 1 hr and permeabilized using Saponin at 1% concentration for 20 minutes at room temperature. Cells were then washed with PBS and visualized using FITC-conjugated-anti-HIS antibody (Miltenyi Biotech). Imaging was done using a GE-Incell-500 analyser visualizing the green fluorescence of the FITC at around 525 nm. […] This confirms the functionality of the ANTP-PEG-2-MAML protein.

SKOV-3 tumour cells = test: Intranuclear trafficking into cancer cells, scored by immunofluorescence; type: cell-based, human; settings: free protein alone
Text: FIG. 2 Intranuclear trafficking of ANTP and ANTP-p21 conjugates into the nuclei of SKOV-3 tumour cells.
Cells, into which the protein had penetrated intranuclearly, were scored positive by immunofluorescence.

| Molecule | MAML-His protein seen inside the cell cytosol and cell nucleus (Human cell-line SKOV3) | cellular uptake / translocation to the nuclei (SKOV-3 tumour cells) |
| --- | --- | --- |
| ANTP: Antennapedia cell-penetrating peptide, 60 amino acid sequence, recombinant | not |  |
| p21: free tumour-suppressor protein p21 |  | No cellular uptake; also recorded: did not translocate to the nuclei |
| B1 | not |  |
